# Key:
# Assay in all cases: relative viability (nuclei count vs DMSO), 5 days (fraction); higher = more cells survive
# Obatoclax + AZD7762 = compound: COC1=CC(c2cc3ccccc3[nH]2)=N/C1=C\c1[nH]c(C)cc1C [Obatoclax] + NC(=O)Nc1cc(-c2cccc(F)c2)sc1C(=O)N[C@H]1CCCNC1 [AZD7762] (partner 0.2 µM)
# In short: (§1)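 For relative viability, nuclei counts in treated wells were divided by those in vehicle wells. Lung cancer cell lines had been pin-tool dosed in 1536-well plates the day after seeding and cultured for 5 days, then fixed and stained in one step (final 0.05% Triton X-100, 1% formaldehyde, 1 ug/ml Hoechst) and imaged at 4×. Doses were one drug alone or a fixed anchor-drug dose plus five library-drug doses (not always all listed) in √10 steps, and values are duplicate-plate medians.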
# [1] = compound: CC1=CC(=NN1)NC2=CC(=NC(=N2)/C=C/C3=CC=CC=C3)N4CCN(CC4)C + Cc1cc(Nc2cc(N3CCN(C)CC3)nc(Sc3ccc(NC(=O)C4CC4)cc3)n2)n[nH]1 [Tozasertib] (partner 0.1 µM)
# In short: as §1
# [2] = compound: CC1=CC(=NN1)NC2=CC(=NC(=N2)/C=C/C3=CC=CC=C3)N4CCN(CC4)C + C[C@@H](Oc1cc(-c2cnn(C3CCNCC3)c2)cnc1N)c1c(Cl)ccc(F)c1Cl [Crizotinib] (partner 1 µM)
# In short: as §1
Cell Line,relative viability (Obatoclax + AZD7762; first compound 0.01 µM),relative viability (Obatoclax + AZD7762; first compound 0.03162 µM),relative viability (Obatoclax + AZD7762; first compound 0.1 µM),relative viability (Obatoclax + AZD7762; first compound 0.3162 µM),relative viability (Obatoclax + AZD7762; first compound 1 µM),relative viability ([1]; first compound 0.08 µM),relative viability ([1]; first compound 0.253 µM),relative viability ([1]; first compound 0.8 µM),relative viability ([1]; first compound 2.53 µM),relative viability ([1]; first compound 8 µM),relative viability ([2]; first compound 0.08 µM),relative viability ([2]; first compound 0.253 µM),relative viability ([2]; first compound 0.8 µM),relative viability ([2]; first compound 2.53 µM),relative viability ([2]; first compound 8 µM)
NCI-H2126,1.08,0.951,1.05,1.06,0.974,0.844,0.907,0.837,0.501,0.236,1.01,1,0.994,0.916,0.529
RERF-LC-KJ,1.04,0.914,0.732,0.838,0.923,0.545,0.437,0.306,0.197,0.2,0.832,0.82,0.747,0.617,0.234
NCI-H1666,0.959,0.823,0.789,0.815,0.581,0.559,0.549,0.554,0.336,0.298,0.969,0.863,0.822,0.453,0.187
PC-14,0.304,0.328,0.269,0.339,0.112,0.634,0.619,0.55,0.359,0.0595,0.831,1,0.872,0.494,0.0811
NCI-H1915,0.697,0.573,0.648,0.752,0.562,0.462,0.34,0.334,0.16,0.135,0.868,0.92,0.869,0.593,0.248
NCI-H2170,0.851,0.844,0.801,0.831,0.743,0.72,0.656,0.699,0.38,0.164,1.23,1.13,1.12,0.434,0.16
HCC-78,0.745,0.669,0.694,0.633,0.596,0.365,0.427,0.352,0.304,0.253,0.365,0.372,0.352,0.32,0.146
PC-3 [JPC-3],0.825,0.834,0.808,0.607,0.419,0.886,0.899,0.839,0.74,0.461,0.931,1,0.917,0.878,0.74
LCLC-103H,0.766,0.727,0.682,0.871,0.917,0.451,0.484,0.389,0.232,0.191,0.993,1.19,1.19,1.07,0.302
EKVX,0.614,,0.348,0.756,0.706,0.396,0.451,0.383,0.196,0.104,0.991,1.12,0.978,0.552,0.147
NCI-H460,0.651,0.537,,0.617,0.11,0.371,0.394,0.313,0.0338,0.0166,0.948,0.839,0.159,0.0358,0.0091
NCI-H727,0.747,0.552,0.827,0.573,0.573,0.568,0.533,0.578,0.407,0.267,0.856,0.805,0.767,0.348,0.185
NCI-H838,0.873,0.933,0.776,0.889,0.656,0.296,0.287,0.271,0.211,0.119,0.89,0.936,0.742,0.434,0.0999
H3255,0.874,0.848,0.725,0.785,0.762,0.79,0.71,0.374,0.513,0.297,0.731,0.936,0.943,0.74,0.192
EPLC-272H,0.236,0.145,0.155,0.192,0.229,0.34,0.203,0.273,0.113,0.122,0.884,1.06,0.711,0.452,0.174
NCI-H647,0.443,0.606,0.207,0.253,0.114,0.236,0.202,0.257,0.123,0.108,1.19,1.06,0.683,0.0821,0.0474
LXF-289,1.03,1.07,1.14,1.1,1.09,0.192,0.142,0.191,0.113,0.0447,0.817,0.825,0.682,0.23,0.0611
NCI-H1755,0.387,0.468,0.381,0.457,0.423,0.539,0.563,0.524,0.333,0.211,0.863,0.929,0.78,0.593,0.105
HCC-15,1.04,1.34,1.21,1.25,1.36,0.291,0.355,0.18,0.0787,0.0703,0.864,0.823,0.783,0.298,0.0811
EMC-BAC-2,1.12,1.11,0.963,1.02,0.874,0.282,0.249,0.254,0.234,0.149,0.788,0.721,0.566,0.296,0.0972
NCI-H1734,0.513,0.499,0.456,0.472,0.238,0.256,0.238,0.239,0.227,0.157,0.632,0.722,0.522,0.331,0.123
HOP-62,0.402,0.519,0.515,0.59,0.508,0.354,0.366,0.377,0.261,0.18,0.985,0.963,0.979,0.706,0.229

# Source: the supplement of paper PMC10307832
